These results are taken from article PMC10610379, “Epidrugs as Promising Tools to Eliminate Plasmodium falciparum Artemisinin-Resistant and Quiescent Parasites” (Pharmaceutics, 2023).

Read-outs that look alike come from different tables or passages of the source.

Data set [1] relates to Plasmodium falciparum F32-ART (artemisinin-resistant strain). Kind of data set: Standard chemosensitivity assay (SYBR Green I), F32-ART. In kind it is cell-based. As to conditions: for IC50: Plasmodium falciparum, read-out: Antiplasmodial Activity: IC50, F32-ART; for Selectivity Index CC50/IC50: ratio cytotoxicity (mammalian cell type of the CC50)/antiplasmodial activity on F32-ART. On the procedure: (§1) They differ by eight mutations in seven genes (PF3D7_0110400, PF3D7_1343700, PF3D7_0213400, PF3D7_1115700, PF3D7_1302100, PF3D7_1459600, PF3D7_1464500) among them the M476I mutation on the kelch13 gene. F32-ART and F32-TEM strains have RSA^0–3 h values up to 12% and less than 0.1%, respectively. […] Both strains were cultured, in the same conditions, according to the Trager and Jensen protocol with modifications. Briefly, parasites were cultivated in RPMI-1640 medium (Biowest) at 2% hematocrit in human red blood cells and 5% human serum (EFS, French Blood Bank) under 5% CO2 in a humid atmosphere at 37 °C.
(§2) The antimalarial activities of the compounds were evaluated on both strains. […] Antimalarial activities were determined with the SYBR Green I method. Each drug concentration was tested in triplicate. The parasites were incubated with the drugs for 48 h. Plates were read on a BioTek FLX800 Microplate Fluorescence Reader (Bio-Tek instruments, Winooski, VT, USA) (λexcitation = 485 nm, λemission = 528 nm). Control parasite culture (i.e., RPMI with 0.5% DMSO) was referred to as 100% growth. IC50 and IC90 values were determined using GraphPad Prism version 7.05 (GraphPad Software, San Diego, CA, USA). Results were the mean of 3 independent experiments. When it is relevant, statistical significance between results obtained with both parasite strains was determined by a Mann–Whitney test using GraphPad Prism version 7.05.

Data set [2] relates to Plasmodium falciparum F32-TEM (artemisinin-sensitive twin line). Put plainly: Standard chemosensitivity assay (SYBR Green I), F32-TEM. The following applies: Plasmodium falciparum, read-out: Antiplasmodial Activity: IC50, F32-TEM. In kind it is cell-based. On the procedure:
as §1, §2

The test system of the next data set is NIH3T3. Set-up: method as in PMID 28644986. The following applies: data from literature ref 50, read-out: Cytotoxicity: CC50 (NIH3T3); cited from earlier work.
A further data set concerns HL-60. The following applies: read-out: Cytotoxicity: CC50 (HL-60), data from literature ref 49; cited from earlier work.
The next data set has as its system HeLa. The following applies: cited from earlier work.
In a further data set the test system is human mesenchymal stem. Details: method as in PMID 30237855. The following applies: data from literature ref 53, read-out: Cytotoxicity: CC50 (human mesenchymal stem); cited from earlier work.
In a further data set the test system is monocytes. Details: method as in PMID 27091512. As to conditions: data from literature ref 47, read-out: Cytotoxicity: CC50 (monocytes); cited from earlier work.
The next data set has as its system NOMO1. The following applies: read-out: Cytotoxicity: CC50 (NOMO1), data from literature ref 51; cited from earlier work.
Data set [3] can be described thus: Cytotoxicity evaluation by MTT assay. Format: cell-based. As to conditions: monkey, Vero cells, * mean of 2 experiments. As to the method:
The cytotoxicity of all newly synthesized compounds was evaluated on the Vero cell lines (isolated from monkey kidney cells, gift from the Faculty of Pharmacy, Toulouse, France) by MTT assay according to Mosmann with slight modifications. Briefly, cells in MEM medium supplemented with 10% fetal calf serum, 2 mM L-glutamine, antibiotics (100 U/mL penicillin and 100 µg/mL streptomycin), and NEAA 1X, were seeded in 96-well plates. After a 24-h incubation at 37 °C and 5% CO2 in a humidified atmosphere, compounds were added with concentrations ranging from 5 nM to 50 μM in duplicate. […] The security index was calculated as the ratio of cytotoxicity/antiplasmodial activity.

Data set [4] deals with P. falciparum strains F32-ART and F32-TEM. Put plainly: Standard chemosensitivity assay, both strains. In kind it is cell-based. As to conditions: Plasmodium falciparum, F32, read-out: Antiplasmodial activity IC50. On the procedure: as §2
The subject of a further data set is H4IIErat. As to conditions: read-out: Cytotoxicity: CC50 (H4IIErat), data from literature ref 54; cited from earlier work.
In data set [5] the test system is ART-resistant parasites F32-ART at the quiescent stage. Put plainly: Quiescent-stage Survival Assay (QSA), 48-h exposure. In kind it is cell-based, Plasmodium falciparum. On the procedure:
The sensitivity of the ART-resistant parasites F32-ART at the quiescent stage towards the different molecules was determined using the QSA (Quiescent-stage Survival Assay), as previously described.
Epidrugs were tested at their IC90 values. In the present study, quiescence was induced using 3 µM of ART or 700 nM of DHA [28]. Thus, D-sorbitol synchronized ring-stage parasites at 3% parasitemia and 2% hematocrit (5 mL of culture per well in 6-well plates) were first exposed to 6 h of ART or DHA to induce quiescence and then to 48 h of the combination “ART or DHA + compound to be tested”. The combinations “ART 6 h/ART 48 h” or “DHA 6 h/DHA 48 h” were used as controls. The compounds were evaluated, in parallel, on proliferating parasites, i.e., without any pre-treatment. After drug exposure, parasite cultures were washed with 40 mL of RPMI-1640 medium and cultured in drug-free conditions supplemented with 10% human serum in new wells. The parasitemia for each condition was then microscopically monitored every 2 days. Culture media were renewed twice a week and 25 µL of fresh red blood cells were added once a week. Obtained data were used to perform Kaplan–Meier survival analyses considering censored data. The outcome was defined as the day when parasite cultures reached the initial parasitemia (3%) and data were considered as censored if no parasite recrudescence was observed during the 30-day experiment timeframe. When relevant, statistical significance between results obtained for the conditions “ART/ART” and “ART/ART + compound to be tested” or “DHA/DHA” and “DHA/DHA + compound to be tested” was determined by a Log Rank (Mantel Cox) test using GraphPad Prism version 7.05. For the best compounds targeting histones, in order to compare western blots data, modified QSAs were carried out by comparing “DHA 6 h/DHA 24 h” versus “DHA 6 h/DHA + compound to be tested 24 h”.

The test system of another data set is GM15850. Set-up: method as in PMID 18953021. As to conditions: data from literature ref 46, read-out: Cytotoxicity: CC50 (GM15850); cited from earlier work.
Where [6] appears, read: F32-ART, 48 h incubation, SYBR Green I, mean ± SEM of 3 experiments (* mean of 2).
Setting [7] is: F32-TEM, 48 h incubation, SYBR Green I, mean ± SEM of 3 experiments (* mean of 2).

Consider `C#CCN(Cc1ccc2nc(N)[nH]c(=O)c2c1)c1ccc(C(=O)N[C@@H](CCC(=O)O)C(=O)O)cc1` [CB3717], for which the IC50 in data set [1] (setting [6]) and in [2] (setting [7]) was 1000 nM throughout. Also, the “Selectivity Index CC50/IC50” value in data set [1] is listed as more than 20. Moreover, the CC50 in the data set on NIH3T3 is more than 20000 nM.
`CN1C(=O)[C@@]23C[C@]4([C@]56C[C@@]78SS[C@@](CO)(C(=O)N7[C@H]5Nc5ccccc56)N(C)C8=O)c5ccccc5N[C@@H]4N2C(=O)[C@]1(CO)SS3` [Chaetocin]: the values for the IC50 in [1] (setting [6]) and in data set [2] (setting [7]) were 640 ± 160 nM and 730 ± 90 nM, respectively. Besides, in [1], the “Selectivity Index CC50/IC50” value was 0.2. For the same molecule, the CC50 with HL-60 was 130 nM.
For the molecule `NNc1nncc2ccccc12` [Hydralazine], the IC50 in data set [1] (setting [6]) and in data set [2] (setting [7]) was more than 10000 nM each time. In data set [1], the “Selectivity Index CC50/IC50” value is listed as less than 4. Also, the CC50 with HeLa is 40000 nM.
Take `Clc1ccc(N/N=C(\c2ccccc2)c2ccccn2)nc1` [JIB-04]: the CC50 in the data set with human mesenchymal stem is more than 10000 nM. In addition, the concentration for half-maximal inhibition (IC50) (commonly the concentration that inhibits the measured activity by half) was determined as 560 ± 80 nM in [1] (setting [6]) and 940 ± 30 nM in data set [2] (setting [7]). In addition, in data set [1], the “Selectivity Index CC50/IC50” value is listed as more than 18.
Take `Cn1cc(/C=C/C(=O)c2cccc(F)c2)cc1/C=C/C(=O)NO` [MC 1568]: the CC50 in the data set on monocytes was 10000 nM. Moreover, the concentration for half-maximal inhibition (IC50) in data set [1] (setting [6]) and in [2] (setting [7]) was more than 10000 nM each time. The “Selectivity Index CC50/IC50” value in [1] is reported as less than 1.
With `CCCCCCCc1ccc(CCc2cccc(O)c2C(=O)O)cc1` [MG149], in the data set with NOMO1, the CC50 is 51000 nM. Besides, the IC50 in [1] (F32, 48 h) was more than 10000 nM; in data set [2] (F32, 48 h) it was more than 10000 nM.
In the case of `Cc1ncsc1-c1ccc(CNC(=O)[C@@H]2C[C@@H](O)CN2C(=O)[C@@H](NC(=O)COCCOCCOCCNC(=O)C[C@@H]2N=C(c3ccc(Cl)cc3)c3c(sc(C)c3C)-n3c(C)nnc32)C(C)(C)C)cc1` [MZ1], the CC50 in data set [3] is more than 50000 nM. Also, the IC50 in data set [1] (setting [6]) was 1700 nM; in data set [2] (setting [7]), 1300 nM; in data set [4], 1300 to 1700 nM. Besides, the “Selectivity Index CC50/IC50” value in [1] was more than 30.
As to `Cc1cc(Nc2ccc(NC(=O)c3ccc(Nc4ccnc5ccccc45)cc3)cc2)nc(N)n1` [SGI-1027], the IC50 in data set [1] (setting [6]) came out at 63 ± 13 nM; in data set [2] (setting [7]), 54 ± 22 nM. Further, in data set [1], the “Selectivity Index CC50/IC50” value is listed as more than 790. The CC50 in the data set with H4IIErat is more than 50000 nM. For the same molecule, the “Delay in parasite recrudescence time (difference between median recrudescence times), ART/ART + compound vs ART/ART” value in data set [5] (quiescence induced with ART 3 µM 6 h, then 48 h ART + compound at its IC90) is 8 days. The “Delay in recrudescence time, DHA/DHA + compound vs DHA/DHA” value in data set [5] (quiescence induced with DHA 700 nM 6 h, then 48 h DHA + compound at its IC90) was not below 6 days.
Take `Cc1ccc(NC(=O)CCCCCC(=O)Cc2ccccc2N)cc1` [TC-H 106]: the CC50 with GM15850 was 6300 nM. Also, the IC50 in [1] (setting [6]) and in [2] (setting [7]) was more than 10000 nM throughout. The “Selectivity Index CC50/IC50” value in data set [1] is reported as less than 0.6.
